Results on five compounds are retold here after ChEMBL document CHEMBL1132250, “Synthesis of classical and a nonclassical 2-amino-4-oxo-6-methyl-5-substituted pyrrolo[2,3-d]pyrimidine antifolate inhibitors of thymidylate synthase” (J Med Chem, 1999).

The target of assay [1] is T1, Thymidylate synthase (Lactobacillus casei, UniProt P00469).
T1 sequence (P00469 whole entry): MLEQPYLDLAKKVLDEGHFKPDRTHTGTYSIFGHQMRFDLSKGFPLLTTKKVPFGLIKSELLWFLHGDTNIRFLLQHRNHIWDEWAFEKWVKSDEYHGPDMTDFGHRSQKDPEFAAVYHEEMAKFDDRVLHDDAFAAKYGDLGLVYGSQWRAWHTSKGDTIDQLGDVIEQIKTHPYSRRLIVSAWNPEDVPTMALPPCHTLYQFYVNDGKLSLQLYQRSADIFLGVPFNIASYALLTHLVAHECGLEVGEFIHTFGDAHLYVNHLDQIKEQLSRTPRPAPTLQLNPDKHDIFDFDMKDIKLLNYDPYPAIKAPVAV
The assay is described as follows: Compound was evaluated for the inhibition at a given concentration against Lactobacillus casei Thymidylate synthase. More on the design: species or system Lacticaseibacillus casei.

Assay [2] concerns the target T2, Thymidylate synthase (Homo sapiens, UniProt P04818). The assay is described as follows: Compound was evaluated for the inhibition at a given concentration against recombinant human Thymidylate synthase.
For assay [3], the target named is T2, Thymidylate synthase. The assay is described as follows: Compound was evaluated for the inhibition at a given concentration against recombinant human TS.
For assay [4], the target named is T1, Thymidylate synthase. The assay is described as follows: Compound was evaluated for the inhibition at a given concentration against Lactobacillus casei TS. More on the design: species or system Lacticaseibacillus casei.

T2 sequence (P04818 whole entry): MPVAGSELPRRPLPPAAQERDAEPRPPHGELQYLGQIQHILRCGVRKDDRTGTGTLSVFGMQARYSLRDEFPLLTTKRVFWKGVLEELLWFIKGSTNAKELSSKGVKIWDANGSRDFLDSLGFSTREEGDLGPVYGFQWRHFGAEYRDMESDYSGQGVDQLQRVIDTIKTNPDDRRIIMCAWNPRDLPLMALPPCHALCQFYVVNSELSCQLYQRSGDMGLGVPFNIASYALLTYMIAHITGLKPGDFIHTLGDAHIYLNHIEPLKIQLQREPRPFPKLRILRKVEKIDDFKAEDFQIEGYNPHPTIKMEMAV

For the compound `Cc1[nH]c2nc(N)[nH]c(=O)c2c1Sc1ccc(C(=O)NC(CCC(=O)O)C(=O)O)cc1` (configuration not stated), the IC50 (in general, the concentration that inhibits the measured activity by half) on Thymidylate synthase [1] was 0.021 µM.
The same measure, in the same setting: as for `Cc1[nH]c2nc(N)[nH]c(=O)c2c1CNCc1ccc(C(=O)N[C@H](CCC(=O)O)C(=O)O)cc1`, the figure is 360 µM.
For `Cc1[nH]c2nc(N)nc(O)c2c1CSc1ccncc1`, the IC50 was greater than 25 µM at Thymidylate synthase [2] and greater than 26 µM at Thymidylate synthase [1].
As for `Cc1[nH]c2nc(N)nc(O)c2c1CNc1ccc(C(=O)N[C@H](CCC(=O)O)C(=O)O)cc1`, the IC50 at Thymidylate synthase [3] and against Thymidylate synthase [4] was 180 µM in each case.
On Thymidylate synthase [1], `C#CCN(Cc1c(C)[nH]c2nc(N)nc(O)c12)c1ccc(C(=O)N[C@H](CCC(=O)O)C(=O)O)cc1` showed an IC50 of 90 µM.
